According to PubChem BioAssay AID330 (DTP/NCI, 2004):
Values joined by “and” are separate entries in the source; they are usually repeats but may differ in a detail not shown here. Equal values may be shown once. Inconclusive results and toxic doses are left out. How the source made its calls: active means survival T/C of 150% or more; inactive means T/C below 125% in these data.

Test system: P388 leukemia ip, CD2F1 mice, survival T/C
Experiment: NCI In Vivo Anticancer Drug Screen. Data for tumor model P388 Leukemia (intraperitoneal) in CD2F1 (CDF1) mice
Conditions: endpoint: median survival time, higher = longer survival
Outline: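 Mice carrying the transplanted tumor received test compound or vehicle. Survival was recorded in each group, and the value is the treated-group measurement divided by that of the vehicle-treated control group.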

[1] = dose: 50.0 mg/kg/injection, schedule: Q01DX009 (ip), vehicle: Klucel (hydroxypropylcellulose) (HPC)
[2] = dose: 100.0 mg/kg/injection, schedule: Q01DX009 (ip), vehicle: Klucel (hydroxypropylcellulose) (HPC)
[3] = dose: 200.0 mg/kg/injection, schedule: Q01DX009 (ip), vehicle: Klucel (hydroxypropylcellulose) (HPC)
[4] = dose: 25.0 mg/kg/injection, schedule: Q01DX009 (ip), vehicle: Klucel (hydroxypropylcellulose) (HPC)
[5] = dose: 100.0 mg/kg/injection, schedule: Q01DX009 (ip), vehicle: saline with Tween-80
[6] = dose: 200.0 mg/kg/injection, schedule: Q01DX009 (ip), vehicle: saline with Tween-80
[7] = dose: 25.0 mg/kg/injection, schedule: Q01DX009 (ip), vehicle: saline with Tween-80
[8] = dose: 50.0 mg/kg/injection, schedule: Q01DX009 (ip), vehicle: saline with Tween-80
[9] = dose: 100.0 mg/kg/injection, schedule: Q04DX003 (ip), vehicle: saline with Tween-80

Measured: T/C

COC(=O)Nc1cnc(C(=O)O)c(C)c1-c1ccc(OC)c(OC)c1OCc1ccccc1
inactive: dose: 12.5 mg/kg/injection, schedule: Q01DX009 (ip), vehicle: other 97 % of control | dose: 25.0 mg/kg/injection, schedule: Q01DX009 (ip), vehicle: other 100 % of control | dose: 50.0 mg/kg/injection, schedule: Q01DX009 (ip), vehicle: other 102 % of control | dose: 100.0 mg/kg/injection, schedule: Q01DX009 (ip), vehicle: other 101 % of control | dose: 200.0 mg/kg/injection, schedule: Q01DX009 (ip), vehicle: other 103 % of control

CCOc1c(N=Nc2ccccc2C)c(C)nn1C(N)=S
inactive: dose: 60.0 mg/kg/injection, schedule: Q01DX005 (ip), vehicle: Klucel + Tween-80 100 % of control | dose: 120.0 mg/kg/injection, schedule: Q01DX005 (ip), vehicle: Klucel + Tween-80 97 % of control | dose: 240.0 mg/kg/injection, schedule: Q01DX005 (ip), vehicle: Klucel + Tween-80 100 % of control

CCOC1N=C(c2ccccc2)c2cc(Cl)ccc2NC1=O (centres undefined)
inactive: [1] 101 % of control | [2] 95 % of control | [3] 93 % of control

Nc1ncnc2c1nc([Se])n2C1OC(CO)C(O)C1O (centres undefined)
inactive: dose: 25.0 mg/kg/injection, schedule: Q01DX005 (ip), vehicle: other 97 % of control | dose: 100.0 mg/kg/injection, schedule: Q01DX005 (ip), vehicle: other 97 % of control | dose: 200.0 mg/kg/injection, schedule: Q01DX005 (ip), vehicle: other 86 % of control | dose: 400.0 mg/kg/injection, schedule: Q01DX005 (ip), vehicle: other 105 % of control

c1ccc(-c2[nH]nc3nccnc23)cc1
inactive: dose: 50.0 mg/kg/injection, schedule: Q01DX005 (ip), vehicle: Klucel (hydroxypropylcellulose) (HPC) 99 % of control | dose: 100.0 mg/kg/injection, schedule: Q01DX005 (ip), vehicle: Klucel (hydroxypropylcellulose) (HPC) 98 % of control | dose: 200.0 mg/kg/injection, schedule: Q01DX005 (ip), vehicle: Klucel (hydroxypropylcellulose) (HPC) 98 % of control

CN1C(=O)C2C3C=CC(C2C1=O)C1C2C(=O)N(C)C(=O)C2C31 (centres undefined)
inactive: [4] 100 % of control | [1] 108 % of control | [2] 111 % of control | [3] 104 % of control and 111 % of control

CCOC(=O)c1nc(Cl)cn(O)c1=N
inactive: [5] 104 % of control | [6] 99 % of control | dose: 400.0 mg/kg/injection, schedule: Q01DX009 (ip), vehicle: saline with Tween-80 93 % of control

COc1ccc2nc3ccccc3c(NCCCCCCCCNc3c4ccccc4nc4ccc(OC)cc34)c2c1
inactive: dose: 0.63 mg/kg/injection, schedule: Q01DX009 (ip), vehicle: other 113 % of control | dose: 1.25 mg/kg/injection, schedule: Q01DX009 (ip), vehicle: other 109 % of control | dose: 2.5 mg/kg/injection, schedule: Q01DX009 (ip), vehicle: other 104 % of control | dose: 3.75 mg/kg/injection, schedule: Q01DX009 (ip), vehicle: other 109 % of control | dose: 5.0 mg/kg/injection, schedule: Q01DX009 (ip), vehicle: other 113 % of control | dose: 7.5 mg/kg/injection, schedule: Q01DX009 (ip), vehicle: other 120 % of control

COc1ccc(C2c3cc4c(cc3OC(O)C2C)OCO4)c(OC)c1 (centres undefined)
inactive: dose: 100.0 mg/kg/injection, schedule: Q04DX002 (ip), vehicle: saline with Tween-80 97 % of control | dose: 200.0 mg/kg/injection, schedule: Q04DX002 (ip), vehicle: saline with Tween-80 97 % of control | dose: 400.0 mg/kg/injection, schedule: Q04DX002 (ip), vehicle: saline with Tween-80 95 % of control

Clc1nc2nc[nH]c2nc1Cl
inactive: dose: 11.0 mg/kg/injection, schedule: Q01DX009 (ip), vehicle: saline with Tween-80 100 % of control | dose: 16.5 mg/kg/injection, schedule: Q01DX009 (ip), vehicle: saline with Tween-80 104 % of control | [7] 100 % of control | dose: 25.0 mg/kg/injection, schedule: Q04DX003 (ip), vehicle: saline with Tween-80 91 % of control | dose: 37.5 mg/kg/injection, schedule: Q01DX009 (ip), vehicle: saline with Tween-80 100 % of control

[Cl][Pt+2][Cl].[NH-]c1ccc(S(=O)(=O)O)cc1[NH-]
inactive: dose: 6.25 mg/kg/injection, schedule: Q04DX002 (ip), vehicle: saline with Tween-80 102 % of control | dose: 12.5 mg/kg/injection, schedule: Q04DX002 (ip), vehicle: saline with Tween-80 111 % of control | dose: 25.0 mg/kg/injection, schedule: Q04DX002 (ip), vehicle: saline with Tween-80 119 % of control | dose: 50.0 mg/kg/injection, schedule: Q04DX002 (ip), vehicle: saline with Tween-80 124 % of control

COc1cc(OC)cc(C2OC3=C(Nc4ccc([N+](=O)[O-])cc4N3)C2=O)c1 (centres undefined)
inactive: dose: 60.0 mg/kg/injection, schedule: Q01DX005 (ip), vehicle: Klucel (hydroxypropylcellulose) (HPC) 90 % of control | dose: 120.0 mg/kg/injection, schedule: Q01DX005 (ip), vehicle: Klucel (hydroxypropylcellulose) (HPC) 90 % of control | dose: 240.0 mg/kg/injection, schedule: Q01DX005 (ip), vehicle: Klucel (hydroxypropylcellulose) (HPC) 90 % of control

Cc1ocnc1Cc1ccc(O)c(O)c1
inactive: dose: 100.0 mg/kg/injection, schedule: Q01DX001 (ip), vehicle: saline 101 % of control | dose: 200.0 mg/kg/injection, schedule: Q01DX001 (ip), vehicle: saline 96 % of control | dose: 400.0 mg/kg/injection, schedule: Q01DX001 (ip), vehicle: saline 98 % of control

CC(=O)CC(=O)c1ccc(C)cc1.CC(=O)CC(=O)c1ccc(C)cc1.[Cu]
inactive: [7] 98 % of control | [8] 108 % of control and 113 % of control

Clc1ccccc1CSCc1c(CSCc2ccccc2Cl)c(CSCc2ccccc2Cl)c(CSCc2ccccc2Cl)c(CSCc2ccccc2Cl)c1CSCc1ccccc1Cl
inactive: [8] 102 % of control | [5] 100 % of control | [6] 100 % of control

COc1cc2c(c(OC)c1OC)-c1oncc1CC2
inactive: dose: 100.0 mg/kg/injection, schedule: Q04DX003 (ip), vehicle: Klucel (hydroxypropylcellulose) (HPC) 90 % of control | dose: 200.0 mg/kg/injection, schedule: Q04DX003 (ip), vehicle: Klucel (hydroxypropylcellulose) (HPC) 92 % of control | dose: 400.0 mg/kg/injection, schedule: Q04DX003 (ip), vehicle: Klucel (hydroxypropylcellulose) (HPC) 87 % of control

CCOC(=O)/C(C#N)=C\c1ccc(/C=C(\C#N)C(=O)OCC)cc1
inactive: [7] 90 % of control | [8] 100 % of control | [5] 90 % of control | [9] 95 % of control

CC1CCCCC1NC(=O)NCCOC(=O)OCCNC(=O)NC1CCCCC1C (centres undefined)
inactive: [9] 90 % of control | dose: 200.0 mg/kg/injection, schedule: Q04DX003 (ip), vehicle: saline with Tween-80 86 % of control | dose: 400.0 mg/kg/injection, schedule: Q04DX003 (ip), vehicle: saline with Tween-80 86 % of control

Nc1ccc(S(=O)(=O)c2cc(O)c3ccccc3c2O)cc1
inactive: [1] 104 % of control

CN(C)c1ccc(C=NCCCN2CCN(CCCN=Cc3ccc(N(C)C)cc3)CC2)cc1
inactive: dose: 12.5 mg/kg/injection, schedule: Q01DX009 (ip), vehicle: Klucel (hydroxypropylcellulose) (HPC) 93 % of control | [4] 99 % of control | [1] 104 % of control | [2] 112 % of control | [3] 105 % of control

O=c1[nH]c(O)c(N=Nc2ccc([N+](=O)[O-])cc2[N+](=O)[O-])c(=O)[nH]1
inactive: [7] 113 % of control | [8] 102 % of control (2×) and 114 % of control | [5] 103 % of control and 112 % of control | [6] 102 % of control and 111 % of control
